tested on: BT20 Cell; assay: Cancer Cell Lysate Total L-Glutamate Assay; format: cell-based; conditions: Homo sapiens, BT-20, 2 h, total L-glutamate in cell lysate, BT20 cells, 2 hour incubation with test compound
Protocol: Cancer Cell Lysate Total L-Glutamate Assay
Cancer cell lines (BT20, HCT116, SKOV3, HCC70, SUM149, MDA-MB-231, etc.) were plated in 96 well plates and were used for the total L-glutamate assay when the monolayer was ca. 80% confluent. The media was changed and fresh media containing L-glutamine was added to the 96 well plates, just before incubation of the cells with test compound. The test compound was diluted in 100% DMSO using a two-fold or three-fold serial dilution. Small volumes of the dilutions of test compound were added to the 96 well plates so the final DMSO concentration was 0.5% v/v in the cell culture medium. The cells were incubated at 37° C., 5% CO2, and 95% air for 2 hours. Following the 2 hour incubation, the cells were washed with water 2 times. After the last water wash, 100 μL of 50 mM Tris-HCl pH 7.4 and 0.01% Tween-20 was added to each well and the plate was frozen at −80° C. The 96 well plate was frozen and thawed a total of 3 times and then sonicated for 5 min at 4° C. in a bath sonicator. Following sonication, the 96 well plate was centrifuged for 5 min at 1000 rpm and 10 μL of the supernatant was transferred to a 384 well assay plate.
Total L-glutamate (L-glutamic acid) in the cell lysis supernatant was detected using glutamate oxidase, horseradish peroxidase and Amplex Red reagent (10-acetyl-3,7-dihydroxy phenoxazine, Invitrogen # A22177). In this assay, L-glutamate was oxidized by glutamate oxidase to produce alpha-ketoglutarate (2-oxopentane dioic acid), NH3 and H202. The H2O2 (hydrogen peroxide) was used by horseradish peroxidase (HRP) to oxidize the Amplex Red Reagent to resorufin which is a fluorescent molecule. When resorufin is excited with light with a wavelength 530-560 nm, it emits light at approximately 585 nm. For detection of total L-glutamate in 10 μL of lysate, 15 μL of an enzyme mixture was added to each well of the 384 well assay plate. The enzyme mixture consisted of 50 mM Tris-HCl pH 7.4, 0.01% Tween-20, 50 μM Amplex Red reagent (final concentration), 0.04 U/mL L-glutamate oxidase (final concentration), and 0.125 U/mL HRP (final concentration). The 384 well assay plate was incubated at room temperature for 5 min and then the fluorescence intensity of each well was measured at 585 nm using a 530-560 nm excitation wavelength in a plate based fluorimeter such as an LJL Analyst or a Tecan Infinite plate reader. Standard curves were constructed for this assay using dilutions of a L-glutamate standard. IC50 were calculated by plotting the relative fluorescent units vs log of the inhibitor concentration and fitting the data to the four parameter logistic equation.
Reference: Chapman J. and Zhou M. (1999) Microplate-based fluorometric methods for the enzymatic determination of I-glutamate: application in measuring I-glutamate in food samples. Analytica Chim Acta 402:47-52.

Row | Compound | IC50
1 | O=C(Cc1ccccc1)Nc1ccc(CC2CCC(c3nnc(NC(=O)Cc4ccccn4)s3)C2)nn1 (racemic) [Example 1, 2-phenyl-N-(6-{[(cis)-3-{5-[(pyridine-2-ylacetyl)amino]-1,3,4-thiadiazol-2-yl}cyclopentyl]methyl}pyridazin-3-yl)acetamide] | 0.7 nM
2 | O=C(Cc1ccccc1)Nc1nnc(CC2CCC(c3nnc(NC(=O)Cc4ccccc4)s3)C2)s1 (racemic) [Example 9, (rac)-2-phenyl-N-(5-{[(cis)-3-{5-[(phenylacetyl)amino]-1,3,4-thiadiazol-2-yl}cyclopentyl]methyl}-1,3,4-thiadiazol-2-yl)acetamide] | 17 nM
3 | CCNc1nnc(C2CCC(Cc3nnc(NC(=O)Cc4ccccn4)s3)C2)s1 (racemic) [Example 24, (rac)-N-[5-({(cis)-3-[5-(ethylamino)-1,3,4-thiadiazol-2-yl]cyclopentyl}methyl)-1,3,4-thiadiazol-2-yl]-2-(pyridin-2-yl)acetamide] | 78.9 nM
4 | O=C(Cc1ccccn1)Nc1ccc(C2CC3(C2)CC(c2ccc(NC(=O)Cc4ccccn4)nn2)C3)nn1 (racemic) [Example 25, N,N′-(spiro[3.3]heptane-2,6-diyldipyridazine-6,3-diyl)bis[2-(pyridin-2-yl)acetamide]] | 1 nM
5 | O=C(Cc1ccccn1)Nc1ccc(C2CCC(Cc3nnc(NC(=O)Cc4ccccn4)s3)C2)nn1 (racemic) [Example 26, 2-(pyridin-2-yl)-N-{5-[(3-{6-[(pyridin-2-ylacetyl)amino]pyridazin-3-yl}cyclopentyl)methyl]-1,3,4-thiadiazol-2-yl}acetamide] | 1.3 nM
6 | CC(=O)Nc1nnc(C2CCC(Cc3nnc(NC(=O)Cc4ncccn4)s3)C2)s1 (racemic) [Example 46, (rac)-N-[5-({(cis)-3-[5-(acetylamino)-1,3,4-thiadiazol-2-yl]cyclopentyl}methyl)-1,3,4-thiadiazol-2-yl]-2-(pyrimidin-2-yl)acetamide] | 349 nM
7 | CC(=O)Nc1nnc(CC2CCC(c3nnc(NC(=O)c4ccccc4)s3)C2)s1 (racemic) [Example 48, (rac)-N-{5-[(cis)-3-{[5-(acetylamino)-1,3,4-thiadiazol-2-yl]methyl}cyclopentyl]-1,3,4-thiadiazol-2-yl}benzamide] | 989 nM
8 | CC(=O)Nc1nnc(C2CCC(Cc3nnc(NC(=O)Cc4ccc(C)nc4)s3)C2)s1 (racemic) [Example 52, (rac)-N-[5-({(cis)-3-[5-(acetylamino)-1,3,4-thiadiazol-2-yl]cyclopentyl}methyl)-1,3,4-thiadiazol-2-yl]-2-(6-methylpyridin-3-yl)acetamide] | 29.8 nM
9 | CC(=O)Nc1nnc(CC2CCC(c3nnc(NC(=O)Cc4ccccn4)s3)C2)s1 (racemic) [Example 55, (rac)-N-{5-[(cis)-3-{[5-(acetylamino)-1,3,4-thiadiazol-2-yl]methyl}cyclopentyl]-1,3,4-thiadiazol-2-yl}-2-(pyridin-2-yl)acetamide] | 391 nM
10 | O=C(Cc1ccccn1)Nc1nnc(C2CC3(C2)CC(c2nnc(NC(=O)Cc4ccccn4)s2)C3)s1 (racemic) [Example 61, N,N′-(spiro[3.3]heptane-2,6-diyldi-1,3,4-thiadiazole-5,2-diyl)bis[2-(pyridin-2-yl)acetamide]] | 1.6 nM
11 | CC(C)C(=O)Nc1ccc(CC2CCC(c3nnc(NC(=O)Cc4ccccn4)s3)C2)nn1 (racemic) [Example 76, (rac)-2-methyl-N-(6-{[(cis)-3-{5-[(pyridin-2-ylacetyl)amino]-1,3,4-thiadiazol-2-yl}cyclopentyl]methyl}pyridazin-3-yl)propanamide] | 3 nM
12 | O=C(Cc1ccccn1)Nc1nnc(CC2CCC(c3nnc(Nc4ncccn4)s3)C2)s1 (racemic) [Example 83, (rac)-2-(pyridin-2-yl)-N-[5-({(cis)-3-[5-(pyrimidin-2-ylamino)-1,3,4-thiadiazol-2-yl]cyclopentyl}methyl)-1,3,4-thiadiazol-2-yl]acetamide] | 2.4 nM

Now from value to compound:

Row | IC50 | Compound
13 | 6.4 nM | O=C(Cc1ccccn1)Nc1nnc(CC2CCC(c3nnc(NC(=O)Cc4ccccn4)s3)C2)s1 (racemic) [Example 3, (rac)-2-(pyridin-2-yl)-N-(5-{[(cis)-3-{5-[(pyridin-2-ylacetyl)amino]-1,3,4-thiadiazol-2-yl}cyclopentyl]methyl}-1,3,4-thiadiazol-2-yl)acetamide]
14 | 47.9 nM | CC(=O)Nc1nnc(C2CCC(Cc3nnc(NC(=O)c4ccccc4)s3)C2)s1 (racemic) [Example 11, N-[5-({(cis)-3-[5-(acetylamino)-1,3,4-thiadiazol-2-yl]cyclopentyl}methyl)-1,3,4-thiadiazol-2-yl]benzamide]
15 | 10.6 nM | CC(=O)Nc1nnc(C2CCC(Cc3nnc(NC(=O)Cc4ccccc4)s3)C2)s1 (racemic) [Example 15, N-[5-({(cis)-3-[5-(acetylamino)-1,3,4-thiadiazol-2-yl]cyclopentyl}methyl)-1,3,4-thiadiazol-2-yl]-2-phenylacetamide]
16 | 79.7 nM | CC(=O)Nc1nnc(C2CCC(Cc3nnc(NC(=O)Cc4ccccn4)s3)C2)s1 (racemic) [Example 18, (rac)-N-[5-({(cis)-3-[5-(acetylamino)-1,3,4-thiadiazol-2-yl]cyclopentyl}methyl)-1,3,4-thiadiazol-2-yl]-2-(pyridin-2-yl)acetamide]
17 | 242 nM | CC(C)(C)C(=O)Nc1nnc(CC2CCC(c3nnc(NC(=O)C(C)(C)C)s3)C2)s1 (racemic) [Example 27, (rac)-N-(5-{[(cis)-3-{5-[(2,2-dimethylpropanoyl)amino]-1,3,4-thiadiazol-2-yl}cyclopentyl]methyl}-1,3,4-thiadiazol-2-yl)-2,2-dimethylpropanamide]
18 | 1.9 nM | CC(C(=O)Nc1nnc(CC2CCC(c3nnc(NC(=O)C(C)c4cccnc4)s3)C2)s1)c1cccnc1 (racemic) [Example 30, (rac)-2-(pyridin-3-yl)-N-(5-{[(cis)-3-(5-{[2-(pyridin-3-yl)propanoyl]amino}-1,3,4-thiadiazol-2-yl)cyclopentyl]methyl}-1,3,4-thiadiazol-2-yl)propanamide]
19 | 2370 nM | CC(=O)Nc1nnc(C2CCC(Cc3nnc(N)s3)C2)s1 (racemic) [Example 42, (rac)-N-(5-{(cis)-3-[(5-amino-1,3,4-thiadiazol-2-yl)methyl]cyclopentyl}-1,3,4-thiadiazol-2-yl)acetamide]
20 | 94.4 nM | CC(=O)Nc1nnc(CC2CCC(c3nnc(NC(=O)Cc4ccccc4)s3)C2)s1 (racemic) [Example 43, (rac)-N-{5-[(cis)-3-{[5-(acetylamino)-1,3,4-thiadiazol-2-yl]methyl}cyclopentyl]-1,3,4-thiadiazol-2-yl}-2-phenylacetamide]
21 | 512 nM | CC(=O)Nc1nnc(C2CCC(Cc3nnc(NC(=O)Cc4cnccn4)s3)C2)s1 (racemic) [Example 47, (rac)-N-[5-({(cis)-3-[5-(acetylamino)-1,3,4-thiadiazol-2-yl]cyclopentyl}methyl)-1,3,4-thiadiazol-2-yl]-2-(pyrazin-2-yl)acetamide]
22 | 789 nM | CC(=O)Nc1nnc(C2CCC(Cc3nnc(NC(=O)Cc4cncnc4)s3)C2)s1 (racemic) [Example 49, (rac)-N-[(cis)-5-({3-[5-(acetylamino)-1,3,4-thiadiazol-2-yl]cyclopentyl}methyl)-1,3,4-thiadiazol-2-yl]-2-(pyrimidin-5-yl)acetamide]
23 | 274 nM | CC(=O)Nc1nnc(C2CCC(C)(c3nnc(NC(C)=O)s3)C2(C)C)s1 (racemic) [Example 60, N,N′-{[-1,2,2-trimethylcyclopentane-1,3-diyl]di-1,3,4-thiadiazole-5,2-diyl}diacetamide]
24 | 1290 nM | CCNc1nnc(C2CCC(Cc3nnc(NC(C)=O)s3)C2)s1 (racemic) [Example 66, (rac)-N-[5-({(cis)-3-[5-(ethylamino)-1,3,4-thiadiazol-2-yl]cyclopentyl}methyl)-1,3,4-thiadiazol-2-yl]acetamide]
25 | 0.2 nM | O=C(Cc1ccccn1)Nc1ccc(CC2CCC(c3nnc(NC(=O)Cc4ccccn4)s3)C2)nn1 (racemic) [Example 70, (rac)-2-(pyridin-2-yl)-N-{5-[(cis)-3-({6-[(pyridin-2-ylacetyl)amino]pyridazin-3-yl}methyl)cyclopentyl]-1,3,4-thiadiazol-2-yl}acetamide]

— US10676471B2, “Cycloalkyl-linked diheterocycle derivatives” (Pfizer Inc., priority 2014, dated 2020)
